Source: US8163728B2, “Pyrazoles” (Hoffmann-La Roche Inc., priority 2009, dated 2012)
pKi: −log10 of the molar value.

Biological target: T1, GABA A α5 (Homo sapiens, UniProt P18507+P31644)
T1 construct: expressed in transfected cells; host or cells: HEK293 cells, transiently transfected; membranes prepared from cell pellets
Test: [3H]flumazenil competition binding, human GABA A α5β3γ2 receptors in HEK293 cell membranes
Conditions: human receptor α5β3γ2 transiently transfected in HEK293; 0.5 nM [3H]flumazenil; 1 hour at 4° C.; means of two determinations; read-out: hKi GABA A α5
Procedure, shortened: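 Competition with [3H]flumazenil for binding to membranes of HEK293 cells transiently expressing human α5β3γ2, in Krebs-tris buffer pH 7.5. Incubated to equilibrium 1 h at 4 °C, filtered and scintillation-counted; Ki values are means of two determinations.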

SMILES	pKi
Cc1onc(-c2ccc(F)cc2)c1COc1cc(C(=O)NC(C)C)n(C)n1 [Example 52, 5-[3-(4-Fluoro-phenyl)-5-methyl-isoxazol-4-ylmethoxy]-2-methyl-2H-pyrazole-3-carboxylic acid isopropylamide]	8.13
Cc1onc(-c2ccc(F)cc2)c1COc1cc(C(=O)NC2CCOCC2)n(C)n1 [Example 53, 5-[3-(4-Fluoro-phenyl)-5-methyl-isoxazol-4-ylmethoxy]-2-methyl-2H-pyrazole-3-carboxylic acid (tetrahydro-pyran-4-yl)-amide]	8.92
Cc1onc(-c2ccc(F)cc2)c1COc1cc(C(N)=O)n(C)n1 [Example 54, 5-[3-(4-Fluoro-phenyl)-5-methyl-isoxazol-4-ylmethoxy]-2-methyl-2H-pyrazole-3-carboxylic acid amide]	7.92
Cc1onc(-c2ccc(F)cc2)c1COc1cc(C(=O)NC(C)(C)CO)n(C)n1 [Example 55, 5-[3-(4-Fluoro-phenyl)-5-methyl-isoxazol-4-ylmethoxy]-2-methyl-2H-pyrazole-3-carboxylic acid (2-hydroxy-1,1-dimethyl-ethyl)-amide]	7.53
Cc1onc(-c2ccc(F)cc2)c1COc1cc(C(=O)NC2(C)COC2)n(C)n1 [Example 58, 5-[3-(4-Fluoro-phenyl)-5-methyl-isoxazol-4-ylmethoxy]-2-methyl-2H-pyrazole-3-carboxylic acid (3-methyl-oxetan-3-yl)-amide]	8.37
COCCNC(=O)c1cc(OCc2c(-c3ccc(F)cc3)noc2C)nn1C [Example 60, 5-[3-(4-Fluoro-phenyl)-5-methyl-isoxazol-4-ylmethoxy]-2-methyl-2H-pyrazole-3-carboxylic acid (2-methoxy-ethyl)-amide]	7.88
Cc1onc(-c2ccc(F)cc2)c1COc1cc(C(=O)NCC2(O)CC2)n(C)n1 [Example 61, 5-[3-(4-Fluoro-phenyl)-5-methyl-isoxazol-4-ylmethoxy]-2-methyl-2H-pyrazole-3-carboxylic acid (1-hydroxy-cyclopropylmethyl)-amide]	8.13
Cc1onc(-c2ccc(F)cc2)c1COc1cc(C(=O)NCCO)n(C)n1 [Example 62, 5-[3-(4-Fluoro-phenyl)-5-methyl-isoxazol-4-ylmethoxy]-2-methyl-2H-pyrazole-3-carboxylic acid (2-hydroxy-ethyl)-amide]	8.15
Cc1onc(-c2ccc(F)cc2)c1COc1cc(C(=O)Nc2ccn(C)n2)n(C)n1 [Example 63, 5-[3-(4-Fluoro-phenyl)-5-methyl-isoxazol-4-ylmethoxy]-2-methyl-2H-pyrazole-3-carboxylic acid (1-methyl-1H-pyrazol-3-yl)-amide]	7.88
CC(=O)NCCNC(=O)c1cc(OCc2c(-c3ccc(F)cc3)noc2C)nn1C [Example 64, 5-[3-(4-Fluoro-phenyl)-5-methyl-isoxazol-4-ylmethoxy]-2-methyl-2H-pyrazole-3-carboxylic acid (2-acetylamino-ethyl)-amide]	7.79
Cc1onc(-c2ccc(F)cc2)c1COc1cc(C(=O)NCC(C)(C)CO)n(C)n1 [Example 65, 5-[3-(4-Fluoro-phenyl)-5-methyl-isoxazol-4-ylmethoxy]-2-methyl-2H-pyrazole-3-carboxylic acid (3-hydroxy-2,2-dimethyl-propyl)-amide]	8.24
Cc1onc(-c2ccc(F)cc2)c1COc1cc(C(=O)NCC(C)(C)O)n(C)n1 [Example 66, 5-[3-(4-Fluoro-phenyl)-5-methyl-isoxazol-4-ylmethoxy]-2-methyl-2H-pyrazole-3-carboxylic acid (2-hydroxy-2-methyl-propyl)-amide]	8.19
Cc1onc(-c2ccc(F)cc2)c1COc1cc(C(=O)N2CC(O)C2)n(C)n1 [Example 71, {5-[3-(4-Fluoro-phenyl)-5-methyl-isoxazol-4-ylmethoxy]-2-methyl-2H-pyrazol-3-yl}-(3-hydroxy-azetidin-1-yl)-methanone]	7.78
Cc1onc(-c2ccc(F)cc2)c1COc1cc(C(=O)N[C@H]2CCC[C@@H]2O)n(C)n1 [Example 73, (+5-[3-(4-Fluoro-phenyl)-5-methyl-isoxazol-4-ylmethoxy]-2-methyl-2H-pyrazole-3-carboxylic acid ((1R,2R)-2-hydroxy-cyclopentyl)-amideand/or 5-[3-(4-Fluoro-phenyl)-5-methyl-isoxazol-4-ylmethoxy]-2-methyl-2H-pyrazole-3-carboxylic acid ((18,28)-2-hydroxy-cyclopentyl)-amide]	8.03
Cc1onc(-c2ccc(F)cc2)c1COc1cc(C(=O)N2CC3(COC3)C2)n(C)n1 [Example 77, {5-[3-(4-Fluoro-phenyl)-5-methyl-isoxazol-4-ylmethoxy]-2-methyl-2H-pyrazol-3-yl}-(2-oxa-6-aza-spiro[3.3]hept-6-yl)-methanone]	7.34
Cc1onc(-c2ccccn2)c1COc1cc(C(=O)NC(C)C)n(C)n1 [Example 78, 2-Methyl-5-(5-methyl-3-pyridin-2-yl-isoxazol-4-ylmethoxy)-2H-pyrazole-3-carboxylic acid isopropylamide]	7.52

SMILES	pKi
Cc1onc(-c2ccccn2)c1COc1cc(C(=O)NC2CCOCC2)n(C)n1 [Example 79, 2-Methyl-5-(5-methyl-3-pyridin-2-yl-isoxazol-4-ylmethoxy)-2H-pyrazole-3-carboxylic acid (tetrahydro-pyran-4-yl)-amide]	8.19
Cc1onc(-c2ccc(F)cn2)c1COc1cc(C(=O)NN(C)C)n(C)n1 [Example 82, 5-[3-(5-Fluoro-pyridin-2-yl)-5-methyl-isoxazol-4-ylmethoxy]-2-methyl-2H-pyrazole-3-carboxylic acid N′,N′-dimethyl-hydrazide]	7.53
Cc1onc(-c2ccc(F)cn2)c1COc1cc(C(=O)NCCO)n(C)n1 [Example 83, 5-[3-(5-Fluoro-pyridin-2-yl)-5-methyl-isoxazol-4-ylmethoxy]-2-methyl-2H-pyrazole-3-carboxylic acid (2-hydroxy-ethyl)-amide]	7.96
Cc1onc(-c2ccc(F)cn2)c1COc1cc(C(=O)NC2CCOCC2)n(C)n1 [Example 84, 5-[3-(5-Fluoro-pyridin-2-yl)-5-methyl-isoxazol-4-ylmethoxy]-2-methyl-2H-pyrazole-3-carboxylic acid (tetrahydro-pyran-4-yl)-amide]	8.46
CCCCc1noc(C)c1COc1cc(C(=O)NCCO)n(C)n1 [Example 85, 5-(3-Butyl-5-methyl-isoxazol-4-ylmethoxy)-2-methyl-2H-pyrazole-3-carboxylic acid (2-hydroxy-ethyl)-amide]	7.56
CCCCc1noc(C)c1COc1cc(C(=O)NC(C)C)n(C)n1 [Example 86, 5-(3-Butyl-5-methyl-isoxazol-4-ylmethoxy)-2-methyl-2H-pyrazole-3-carboxylic acid isopropylamide]	7.41
CCCCc1noc(C)c1COc1cc(C(=O)NC2CCOCC2)n(C)n1 [Example 88, 5-(3-Butyl-5-methyl-isoxazol-4-ylmethoxy)-2-methyl-2H-pyrazole-3-carboxylic acid (tetra-hydro-pyran-4-yl)-amide]	8.06
Cc1onc(C2CCOCC2)c1COc1cc(C(=O)NC2CCOCC2)n(C)n1 [Example 90, 2-Methyl-5-[5-methyl-3-(tetrahydro-pyran-4-yl)-isoxazol-4-ylmethoxy]-2H-pyrazole-3-carboxylic acid (tetrahydro-pyran-4-yl)-amide]	7.61
Cn1nc(OCc2c(-c3ccc(F)cc3)noc2CO)cc1C(=O)NC1CCOCC1 [Example 91, 5-[3-(4-Fluoro-phenyl)-5-hydroxymethyl-isoxazol-4-ylmethoxy]-2-methyl-2H-pyrazole-3-carboxylic acid (tetrahydro-pyran-4-yl)-amide]	9.00
CC(C)NC(=O)c1cc(OCc2c(-c3ccc(F)cc3)noc2CO)nn1C [Example 92, 5-[3-(4-Fluoro-phenyl)-5-hydroxymethyl-isoxazol-4-ylmethoxy]-2-methyl-2H-pyrazole-3-carboxylic acid isopropylamide]	8.02
Cn1nc(OCc2c(-c3ccc(F)cc3)noc2CO)cc1C(N)=O [Example 93, 5-[3-(4-Fluoro-phenyl)-5-hydroxymethyl-isoxazol-4-ylmethoxy]-2-methyl-2H-pyrazole-3-carboxylic acid amide]	7.83
Cn1nc(OCc2c(-c3ccc(F)cc3)noc2CO)cc1C(=O)NCC(F)(F)C(F)(F)F [Example 95, 5-[3-(4-Fluoro-phenyl)-5-hydroxymethyl-isoxazol-4-ylmethoxy]-2-methyl-2H-pyrazole-3-carboxylic acid (2,2,3,3,3-pentafluoro-propyl)-amide]	8.10
Cn1ccc(NC(=O)c2cc(OCc3c(-c4ccc(F)cc4)noc3CO)nn2C)n1 [Example 96, 5-[3-(4-Fluoro-phenyl)-5-hydroxymethyl-isoxazol-4-ylmethoxy]-2-methyl-2H-pyrazole-3-carboxylic acid (1-methyl-1H-pyrazol-3-yl)-amide]	7.37
Cn1nc(OCc2c(-c3ccc(F)cc3)noc2CO)cc1C(=O)N1CC2(COC2)C1 [Example 99, {5-[3-(4-Fluoro-phenyl)-5-hydroxymethyl-isoxazol-4-ylmethoxy]-2-methyl-2H-pyrazol-3-yl}-(2-oxa-6-aza-spiro[3.3]hept-6-yl)-methanone]	7.62
CC(C)NC(=O)c1cc(OCc2c(-c3ccc(Cl)cc3)noc2CO)nn1C [Example 100, 5-[3-(4-Chloro-phenyl)-5-hydroxymethyl-isoxazol-4-ylmethoxy]-2-methyl-2H-pyrazole-3-carboxylic acid isopropylamide]	8.24
Cn1nc(OCc2c(-c3ccc(Cl)cc3)noc2CO)cc1C(=O)NC1CCOCC1 [Example 101, 5-[3-(4-Chloro-phenyl)-5-hydroxymethyl-isoxazol-4-ylmethoxy]-2-methyl-2H-pyrazole-3-carboxylic acid (tetrahydro-pyran-4-yl)-amide]	9.05
